Laboratory results taken from US5110800A, “Derivatives of erythromycylamine” (Eli Lilly and Company, priority 1989, dated 1992).
Values after ≈ are worked out from the molar mass of the structure shown. Where two headings read alike, the source gives them in different places.

Assays:
Test in all cases: MIC, standard agar-dilution assay
Format in all cases: cell-based
[1] = test system: Staphylococcus aureus V41; details: Staphylococcus aureus
From the text: (§1) In addition to excellent in vitro activity against erythromycin-sensitive bacteria, several members of this new series have shown in vitro activity against erythromycin-resistant strains. These include strains which are inducibly-resistant to erythromycin (S. aureus V41 and X400 and S. epidermidis EPI1) and even strains which are constitutively-resistant (S. epidermidis 270).

[2] = test system: Staphylococcus aureus X400; details: Staphylococcus aureus
From the text: as §1

[3] = test system: Staphylococcus epidermidis 270; details: Staphylococcus epidermidis, 270; Table IV; constitutively erythromycin-resistant; read-out: minimal inhibitory concentration (MIC)
From the text: as §1

[4] = test system: Staphylococcus aureus X1.1; details: Staphylococcus aureus, X1.1, read-out: minimal inhibitory concentration (MIC)
[5] = test system: Staphylococcus epidermidis 222; details: Staphylococcus epidermidis, 222, read-out: minimal inhibitory concentration (MIC)
[6] = test system: Streptococcus sp. group D 2041; details: Streptococcus, read-out: minimal inhibitory concentration (MIC)
Escherichia coli EC14 = details: Escherichia coli
[7] = test system: Haemophilus influenzae C.L.; details: Haemophilus influenzae, read-out: minimal inhibitory concentration (MIC)
[8] = test system: Klebsiella pneumoniae X68; details: Klebsiella pneumoniae, X68, agar dilution, read-out: minimal inhibitory concentration (MIC)
[9] = test system: Streptococcus sp. group D X66; details: Streptococcus, read-out: minimal inhibitory concentration (MIC)
[10] = test system: Streptococcus pyogenes C203; details: Streptococcus pyogenes, C203, read-out: minimal inhibitory concentration (MIC)
[11] = V41, Table IV, penicillin-resistant strain, inducibly erythromycin-resistant, read-out: minimal inhibitory concentration (MIC)
[12] = X400, Table IV, methicillin-resistant strain, inducibly erythromycin-resistant, read-out: minimal inhibitory concentration (MIC)
[13] = EC14, read-out: minimal inhibitory concentration (MIC)
[14] = EC14, Table IV, agar dilution, read-out: minimal inhibitory concentration (MIC)

SMILES	MIC [1, 11]	MIC [2, 12]	MIC [3]	MIC ([8]; Table IV)	other results
CCN[C@@H]1[C@H](C)[C@@H](O)[C@](C)(O)[C@@H](CC)OC(=O)[C@H](C)[C@@H](O[C@H]2C[C@@](C)(OC)[C@@H](O)[C@H](C)O2)[C@H](C)[C@@H](O[C@@H]2O[C@H](C)C[C@H](N(C)C)[C@H]2O)[C@](C)(O)C[C@H]1C [Compound 2, (9S)-9-Deoxo-9-(ethylamino)erythromycin]	> 128 mg/L	> 128 mg/L	> 128 mg/L		
CCCCC/C=C/CCCN[C@@H]1[C@H](C)[C@@H](O)[C@](C)(O)[C@@H](CC)OC(=O)[C@H](C)[C@@H](O[C@H]2C[C@@](C)(OC)[C@@H](O)[C@H](C)O2)[C@H](C)[C@@H](O[C@@H]2O[C@H](C)C[C@H](N(C)C)[C@H]2O)[C@](C)(O)C[C@H]1C [Compound 14, 9-Deoxo-9-[(trans-dec-4-enyl)amino]erythromycin]				> 128 mg/L	MIC [4]: 0.5 mg/L (≈ 0.573 µM); MIC [5]: 0.25 mg/L (≈ 0.286 µM); MIC [6]: 2 mg/L (≈ 2.29 µM); MIC (Escherichia coli EC14; [13]): 128 mg/L (≈ 147 µM); MIC [7]: 2 mg/L (≈ 2.29 µM)
CCCN[C@@H]1[C@H](C)[C@@H](O)[C@](C)(O)[C@@H](CC)OC(=O)[C@H](C)[C@@H](O[C@H]2C[C@@](C)(OC)[C@@H](O)[C@H](C)O2)[C@H](C)[C@@H](O[C@@H]2O[C@H](C)C[C@H](N(C)C)[C@H]2O)[C@](C)(O)C[C@H]1C [Compound 3, 9-Deoxo-9-(n-propylamino)erythromycin]	> 128 mg/L	> 128 mg/L	> 128 mg/L		
CC[C@H]1OC(=O)[C@H](C)[C@@H](O[C@H]2C[C@@](C)(OC)[C@@H](O)[C@H](C)O2)[C@H](C)[C@@H](O[C@@H]2O[C@H](C)C[C@H](N(C)C)[C@H]2O)[C@](C)(O)C[C@@H](C)[C@H]2[C@H](C)[C@@H](OCN2C(C)C)[C@]1(C)O [Compound 58, 9-Deoxo-9-[isopropylamino]-9,11-(N,O)-cyclic Methylene Adduct of Erythromycin]					MIC ([1]; V41, read-out: minimal inhibitory concentration (MIC)): > 128 mg/L; MIC ([2]; X400, read-out: minimal inhibitory concentration (MIC)): > 128 mg/L
CCCCCCCCN[C@@H]1[C@H](C)[C@@H](O)[C@](C)(O)[C@@H](CC)OC(=O)[C@H](C)[C@@H](O[C@H]2C[C@@](C)(OC)[C@@H](O)[C@H](C)O2)[C@H](C)[C@@H](O[C@@H]2O[C@H](C)C[C@H](N(C)C)[C@H]2O)[C@](C)(O)C[C@H]1C [Compound 8, 9-Deoxo-9-(n-octylamino)erythromycin]				> 128 mg/L	MIC (Escherichia coli EC14; [14]): > 128 mg/L
CC[C@H]1OC(=O)[C@H](C)[C@@H](O[C@H]2C[C@@](C)(OC)[C@@H](O)[C@H](C)O2)[C@H](C)[C@@H](O[C@@H]2O[C@H](C)C[C@H](N(C)C)[C@H]2O)[C@](C)(O)C[C@@H](C)[C@H](NCC#Cc2ccccc2)[C@H](C)[C@@H](O)[C@]1(C)O [Compound 18, 9-Deoxo-9-[(3-phenyl-2-propynyl)amino]erythromycin]				> 128 mg/L	MIC [4]: 1 mg/L (≈ 1.18 µM); MIC [5]: 0.5 mg/L (≈ 0.589 µM); MIC [9]: 0.25 mg/L (≈ 0.294 µM); MIC [6]: 1 mg/L (≈ 1.18 µM); MIC (Escherichia coli EC14; [14]): > 128 mg/L
CC[C@H]1OC(=O)[C@H](C)[C@@H](O[C@H]2C[C@@](C)(OC)[C@@H](O)[C@H](C)O2)[C@H](C)[C@@H](O[C@@H]2O[C@H](C)C[C@H](N(C)C)[C@H]2O)[C@](C)(O)C[C@@H](C)[C@H](NCCC(C)CCCC(C)(C)OC)[C@H](C)[C@@H](O)[C@]1(C)O (stereo partly shown) [Compound 24, 9-Deoxo-9-[(7-methoxy-3,7-dimethyloctyl)amino]erythromycin]			> 128 mg/L	> 128 mg/L	MIC [4]: 0.5 mg/L (≈ 0.552 µM); MIC [5]: 0.25 mg/L (≈ 0.276 µM); MIC [6]: 2 mg/L (≈ 2.21 µM); MIC (Escherichia coli EC14; [13]): 128 mg/L (≈ 141 µM); MIC [10]: 0.015 mg/L (≈ 0.0166 µM)
CC[C@H]1OC(=O)[C@H](C)[C@@H](O[C@H]2C[C@@](C)(OC)[C@@H](O)[C@H](C)O2)[C@H](C)[C@@H](O[C@@H]2O[C@H](C)C[C@H](N(C)C)[C@H]2O)[C@](C)(O)C[C@@H](C)[C@H](NCCCOC)[C@H](C)[C@@H](O)[C@]1(C)O [Compound 23, (9S)-9-Deoxo-9-[(3-methoxypropyl)amino]erythromycin]	> 128 mg/L	> 128 mg/L	> 128 mg/L		MIC [4]: 2 mg/L (≈ 2.48 µM); MIC [5]: 0.5 mg/L (≈ 0.62 µM); MIC [9]: 0.25 mg/L (≈ 0.31 µM); MIC [6]: 8 mg/L (≈ 9.91 µM); MIC [10]: 0.125 mg/L (≈ 0.155 µM)
CC[C@H]1OC(=O)[C@H](C)[C@@H](O[C@H]2C[C@@](C)(OC)[C@@H](O)[C@H](C)O2)[C@H](C)[C@@H](O[C@@H]2O[C@H](C)C[C@H](N(C)C)[C@H]2O)[C@](C)(O)C[C@@H](C)[C@H]2[C@H](C)[C@@H](OCN2Cc2ccccc2)[C@]1(C)O [Compound 62, 9-Deoxo-9-[(benzyl)amino]-9,11-(N,O)-cyclic Methylene Adduct of Erythromycin]					MIC (Escherichia coli EC14; EC14, Table V, agar dilution, read-out: minimal inhibitory concentration (MIC)): > 128 mg/L; MIC ([8]; Table V): > 128 mg/L
CCCCC/C=C\CCCN[C@@H]1[C@H](C)[C@@H](O)[C@](C)(O)[C@@H](CC)OC(=O)[C@H](C)[C@@H](O[C@H]2C[C@@](C)(OC)[C@@H](O)[C@H](C)O2)[C@H](C)[C@@H](O[C@@H]2O[C@H](C)C[C@H](N(C)C)[C@H]2O)[C@](C)(O)C[C@H]1C [Compound 13]				> 128 mg/L	MIC [4]: 0.25 mg/L (≈ 0.286 µM); MIC [9]: 0.06 mg/L (≈ 0.0687 µM); MIC (Escherichia coli EC14; [13]): 128 mg/L (≈ 147 µM); MIC [7]: 2 mg/L (≈ 2.29 µM)

More lines, main results first:

MIC [1, 11]	MIC [2, 12]	MIC [3]	SMILES	MIC ([8]; Table IV)	other results
> 128 mg/L	> 128 mg/L	> 128 mg/L	CC[C@H]1OC(=O)[C@H](C)[C@@H](O[C@H]2C[C@@](C)(OC)[C@@H](O)[C@H](C)O2)[C@H](C)[C@@H](O[C@@H]2O[C@H](C)C[C@H](N(C)C)[C@H]2O)[C@](C)(O)C[C@@H](C)[C@H](NCC2CC=CCC2)[C@H](C)[C@@H](O)[C@]1(C)O (stereo partly shown) [Compound 15, 9-Deoxo-9-[(1-cyclohex-4-enylmethyl)amino]erythromycin]		
> 128 mg/L	> 128 mg/L	> 128 mg/L	CC[C@H]1OC(=O)[C@H](C)[C@@H](O[C@H]2C[C@@](C)(OC)[C@@H](O)[C@H](C)O2)[C@H](C)[C@@H](O[C@@H]2O[C@H](C)C[C@H](N(C)C)[C@H]2O)[C@](C)(O)C[C@@H](C)[C@H](NCC(C)(C)CO)[C@H](C)[C@@H](O)[C@]1(C)O [Compound 22, 9-Deoxo-9-[(3-hydroxy-2,2-dimethylpropyl)amino]erythromycin]		
		> 128 mg/L	CCC(CC)CN[C@@H]1[C@H](C)[C@@H](O)[C@](C)(O)[C@@H](CC)OC(=O)[C@H](C)[C@@H](O[C@H]2C[C@@](C)(OC)[C@@H](O)[C@H](C)O2)[C@H](C)[C@@H](O[C@@H]2O[C@H](C)C[C@H](N(C)C)[C@H]2O)[C@](C)(O)C[C@H]1C [Compound 12, 9-Deoxo-9-[(2-ethylbutyl)amino]erythromycin]		
> 128 mg/L	> 128 mg/L	> 128 mg/L	CC[C@H]1OC(=O)[C@H](C)[C@@H](O[C@H]2C[C@@](C)(OC)[C@@H](O)[C@H](C)O2)[C@H](C)[C@@H](O[C@@H]2O[C@H](C)C[C@H](N(C)C)[C@H]2O)[C@](C)(O)C[C@@H](C)[C@H](NCCOCCOC)[C@H](C)[C@@H](O)[C@]1(C)O [Compound 25, 9-Deoxo-9-[[2-(2-methoxyethoxy)ethyl]amino]erythromycin]		
> 128 mg/L	> 128 mg/L	> 128 mg/L	CC[C@H]1OC(=O)[C@H](C)[C@@H](O[C@H]2C[C@@](C)(OC)[C@@H](O)[C@H](C)O2)[C@H](C)[C@@H](O[C@@H]2O[C@H](C)C[C@H](N(C)C)[C@H]2O)[C@](C)(O)C[C@@H](C)[C@H](NCCCCCO)[C@H](C)[C@@H](O)[C@]1(C)O [Compound 21, 9-Deoxo-9-[(5-hydroxypentyl)amino]erythromycin]		
> 128 mg/L	> 128 mg/L	> 128 mg/L	CCCCCCCN[C@@H]1[C@H](C)[C@@H](O)[C@](C)(O)[C@@H](CC)OC(=O)[C@H](C)[C@@H](O[C@H]2C[C@@](C)(OC)[C@@H](O)[C@H](C)O2)[C@H](C)[C@@H](O[C@@H]2O[C@H](C)C[C@H](N(C)C)[C@H]2O)[C@](C)(O)C[C@H]1C [Compound 7, 9-Deoxo-9-(n-heptylamino)erythromycin]	> 128 mg/L	
> 128 mg/L	> 128 mg/L	> 128 mg/L	CCCCCCN[C@@H]1[C@H](C)[C@@H](O)[C@](C)(O)[C@@H](CC)OC(=O)[C@H](C)[C@@H](O[C@H]2C[C@@](C)(OC)[C@@H](O)[C@H](C)O2)[C@H](C)[C@@H](O[C@@H]2O[C@H](C)C[C@H](N(C)C)[C@H]2O)[C@](C)(O)C[C@H]1C [Compound 6, 9-Deoxo-9-(n-hexylamino)erythromycin]		
> 128 mg/L	> 128 mg/L	> 128 mg/L	CC[C@H]1OC(=O)[C@H](C)[C@@H](O[C@H]2C[C@@](C)(OC)[C@@H](O)[C@H](C)O2)[C@H](C)[C@@H](O[C@@H]2O[C@H](C)C[C@H](N(C)C)[C@H]2O)[C@](C)(O)C[C@@H](C)[C@H](NCCC(C)C)[C@H](C)[C@@H](O)[C@]1(C)O [Compound 11, 9-Deoxo-9-[(3-methylbutyl)amino]erythromycin]		
